Test results as given in patent publication US10494378B2, “Fused ring pyrimidine compound, intermediate, and preparation method, composition and use thereof” (GUANGZHOU MAXINOVEL PHARMACEUTICALS CO., LTD., priority 2015, dated 2019).

Assays:
Assay type in all cases: biochemical
JAK1 kinase = target: T1, JAK1 kinase (Homo sapiens, UniProt P23458); test: IC50 evaluation assay on JAK1 kinase inhibition (Caliper); conditions: adenosine triphosphate at Km; 1 hour at 28° C.; average of two tests; read-out: IC50 (nM) inhibiting JAK 1 kinase
T1 construct: purchased Carna 08-144
T1 sequence (P23458 whole entry): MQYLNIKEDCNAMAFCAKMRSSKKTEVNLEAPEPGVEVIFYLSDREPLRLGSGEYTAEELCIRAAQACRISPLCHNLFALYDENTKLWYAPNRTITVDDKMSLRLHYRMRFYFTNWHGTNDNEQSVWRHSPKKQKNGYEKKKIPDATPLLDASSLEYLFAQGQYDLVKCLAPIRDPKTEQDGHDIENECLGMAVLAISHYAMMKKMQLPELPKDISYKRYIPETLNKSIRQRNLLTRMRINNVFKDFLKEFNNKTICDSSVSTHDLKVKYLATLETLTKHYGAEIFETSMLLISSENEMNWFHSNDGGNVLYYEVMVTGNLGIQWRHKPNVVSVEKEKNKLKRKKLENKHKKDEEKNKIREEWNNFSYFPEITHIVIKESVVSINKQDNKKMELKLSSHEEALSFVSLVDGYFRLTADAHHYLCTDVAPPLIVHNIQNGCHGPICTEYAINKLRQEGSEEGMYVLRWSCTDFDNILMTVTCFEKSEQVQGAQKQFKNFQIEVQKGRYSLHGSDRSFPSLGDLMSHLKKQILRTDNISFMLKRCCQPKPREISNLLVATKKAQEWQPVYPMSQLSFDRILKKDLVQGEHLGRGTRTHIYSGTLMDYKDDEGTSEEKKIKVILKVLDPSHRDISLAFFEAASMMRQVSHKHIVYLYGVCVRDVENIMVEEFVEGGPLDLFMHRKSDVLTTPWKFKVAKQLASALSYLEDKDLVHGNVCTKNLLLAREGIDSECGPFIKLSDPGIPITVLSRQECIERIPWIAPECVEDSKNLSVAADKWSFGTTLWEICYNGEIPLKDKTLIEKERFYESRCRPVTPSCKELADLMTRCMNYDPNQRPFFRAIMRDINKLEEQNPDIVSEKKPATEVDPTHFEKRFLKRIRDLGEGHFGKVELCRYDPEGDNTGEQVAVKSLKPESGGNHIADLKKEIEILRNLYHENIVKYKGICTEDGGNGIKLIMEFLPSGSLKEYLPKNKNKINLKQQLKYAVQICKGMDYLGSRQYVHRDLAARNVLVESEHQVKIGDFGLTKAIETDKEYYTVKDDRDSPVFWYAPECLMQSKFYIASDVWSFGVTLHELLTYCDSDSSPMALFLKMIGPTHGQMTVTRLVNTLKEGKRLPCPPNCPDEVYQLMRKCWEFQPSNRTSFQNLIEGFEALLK
Experimental: (§1) 1. The compound was dissolved in 100% DMSO, diluted into solutions with appropriate concentration gradients with water according to experimental requirement, and added to a 384-well plate.
(§2) 2. JAK2 kinase (Carna, Cat. No. 08-045, Lot. No. 07CBS-1927) and JAK3 kinase (Carna, Cat. No. 08-046, Lot. No. 08CBS-0371) were diluted to the optimum concentration with the following buffer solution: 50 mM HEPES, pH 7.5, 0.0015% Brij-35, 2 mM DTT. JAK1 kinase (Carna, Cat. No. 08-144, Lot. No. 11CBS-0144D) was diluted to the optimum concentration with the following buffer solution: 25 mM HEPES pH 7.5, 0.01% Brij-35, 2 mM DTT, 0.01M Triton. Transfer to the 384-well plate and incubated with the compound for a period of time.
(§3) 3. […] The substrate of JAK1 was diluted to the optimum concentration with the following buffer: 25 mM HEPES, pH 7.5, 0.01% Brij-35, 10 mM MgCl2, 0.01M Triton, adenosine triphosphate at Km. Add to the 384-well plate to initiate there action and react for 1 hour at 28° C.
(§4) 4. 1 Eq. of sulfuric acid solution was added to terminate the reaction, the conversion rate was read with Caliper Reader. The inhibition rate was calculated as the average of two tests.

JAK2 kinase = target: T2, JAK2 kinase (Homo sapiens, UniProt O60674); test: IC50 evaluation assay on JAK2 kinase inhibition (Caliper); conditions: adenosine triphosphate at Km; 1 hour at 28° C.; average of two tests; read-out: IC50 (nM) inhibiting JAK 2 kinase
T2 construct: purchased Carna 08-045
T2 sequence (O60674 whole entry): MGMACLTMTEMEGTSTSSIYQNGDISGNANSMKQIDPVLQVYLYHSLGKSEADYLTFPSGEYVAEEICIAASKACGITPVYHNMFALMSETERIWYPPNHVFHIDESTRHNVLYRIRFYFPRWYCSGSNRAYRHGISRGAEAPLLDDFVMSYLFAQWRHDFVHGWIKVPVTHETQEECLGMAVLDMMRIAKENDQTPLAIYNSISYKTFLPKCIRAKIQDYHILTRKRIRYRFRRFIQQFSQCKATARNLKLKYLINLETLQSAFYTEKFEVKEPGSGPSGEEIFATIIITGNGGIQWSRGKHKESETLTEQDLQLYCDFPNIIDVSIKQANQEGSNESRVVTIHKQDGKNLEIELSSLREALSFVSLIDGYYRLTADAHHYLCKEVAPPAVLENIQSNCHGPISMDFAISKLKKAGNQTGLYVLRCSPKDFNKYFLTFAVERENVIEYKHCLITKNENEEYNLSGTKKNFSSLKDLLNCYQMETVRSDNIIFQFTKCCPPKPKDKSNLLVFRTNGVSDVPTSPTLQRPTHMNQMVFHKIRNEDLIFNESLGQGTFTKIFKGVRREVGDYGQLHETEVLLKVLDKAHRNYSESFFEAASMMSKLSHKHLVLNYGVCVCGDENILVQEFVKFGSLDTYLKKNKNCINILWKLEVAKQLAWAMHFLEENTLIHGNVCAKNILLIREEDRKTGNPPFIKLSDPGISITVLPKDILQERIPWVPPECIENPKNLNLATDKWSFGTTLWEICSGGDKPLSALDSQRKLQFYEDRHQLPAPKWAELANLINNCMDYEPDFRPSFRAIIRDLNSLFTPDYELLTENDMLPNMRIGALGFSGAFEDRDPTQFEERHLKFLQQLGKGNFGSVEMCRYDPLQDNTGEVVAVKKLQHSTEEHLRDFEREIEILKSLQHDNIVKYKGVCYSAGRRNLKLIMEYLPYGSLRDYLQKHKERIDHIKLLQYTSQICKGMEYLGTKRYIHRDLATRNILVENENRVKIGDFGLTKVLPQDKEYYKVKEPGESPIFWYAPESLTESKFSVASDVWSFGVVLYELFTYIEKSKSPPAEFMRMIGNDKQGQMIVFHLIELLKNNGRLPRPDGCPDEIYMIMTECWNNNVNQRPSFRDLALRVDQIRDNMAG
Experimental: as §1, §2, §3, §4

JAK3 kinase = target: T3, JAK3 kinase (Homo sapiens, UniProt P52333); test: IC50 evaluation assay on JAK3 kinase inhibition (Caliper); conditions: adenosine triphosphate at Km; 1 hour at 28° C.; average of two tests; read-out: IC50 (nM) inhibiting JAK 3 kinase
T3 construct: purchased Carna 08-046
T3 sequence (P52333 1-1124): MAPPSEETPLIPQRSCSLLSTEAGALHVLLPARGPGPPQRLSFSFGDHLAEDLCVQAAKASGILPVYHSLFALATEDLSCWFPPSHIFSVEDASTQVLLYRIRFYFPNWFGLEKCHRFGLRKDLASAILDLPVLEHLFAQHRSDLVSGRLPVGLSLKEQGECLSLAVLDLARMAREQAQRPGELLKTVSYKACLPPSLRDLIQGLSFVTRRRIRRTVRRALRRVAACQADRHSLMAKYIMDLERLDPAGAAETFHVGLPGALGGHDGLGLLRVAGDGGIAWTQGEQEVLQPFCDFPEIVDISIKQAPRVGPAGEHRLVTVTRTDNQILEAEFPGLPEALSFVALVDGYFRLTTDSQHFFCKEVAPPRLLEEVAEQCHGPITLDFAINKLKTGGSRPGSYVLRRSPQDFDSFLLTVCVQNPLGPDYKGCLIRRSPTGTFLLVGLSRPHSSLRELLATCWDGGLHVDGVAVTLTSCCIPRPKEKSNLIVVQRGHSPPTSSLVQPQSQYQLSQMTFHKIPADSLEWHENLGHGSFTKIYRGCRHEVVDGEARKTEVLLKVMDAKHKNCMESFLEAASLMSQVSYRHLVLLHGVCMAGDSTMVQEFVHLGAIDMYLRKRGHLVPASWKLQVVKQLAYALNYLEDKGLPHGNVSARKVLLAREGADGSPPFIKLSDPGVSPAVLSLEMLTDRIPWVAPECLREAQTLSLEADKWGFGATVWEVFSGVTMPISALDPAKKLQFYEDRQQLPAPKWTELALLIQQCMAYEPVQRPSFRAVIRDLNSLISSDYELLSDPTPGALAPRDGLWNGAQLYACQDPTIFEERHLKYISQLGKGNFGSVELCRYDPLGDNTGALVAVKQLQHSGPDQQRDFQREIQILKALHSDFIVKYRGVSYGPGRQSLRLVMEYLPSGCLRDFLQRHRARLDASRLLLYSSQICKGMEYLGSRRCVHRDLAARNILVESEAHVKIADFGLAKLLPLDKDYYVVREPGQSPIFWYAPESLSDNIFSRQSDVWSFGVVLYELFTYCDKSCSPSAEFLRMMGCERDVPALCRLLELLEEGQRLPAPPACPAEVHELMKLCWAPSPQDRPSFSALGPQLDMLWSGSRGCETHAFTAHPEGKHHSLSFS
Experimental: as §1, §2, §3, §4

Structure (SMILES) | IC50 (JAK1 kinase) | IC50 (JAK2 kinase) | IC50 (JAK3 kinase)
COc1cc(OCCCN2CCCC2)ccc1-c1c(C)sc2cnc(Nc3cnn(C)c3)nc12 [Compound 18, N-(7-{2-methoxy-4-[3-(1-pyrrolidinyl)propoxy]phenyl}-6-methylthieno[3,2-d]pyrimidinyl-2-yl)-1-methyl-1H-pyrazol-4-amine] | 20 nM | 4.3 nM | 4.5 nM
COc1cc(OCCCS(C)(=O)=O)ccc1-c1c(C)sc2cnc(Nc3cnn(CCO)c3)nc12 [Compound 24, 2-(4-{[7-(4-(3-methylsulfonylpropoxy)-2-methoxyphenyl]-6-methylthieno[3,2-d]pyrimidinyl-2-yl}amino)-1H-pyrazol-1-yl]-1-ethanol] | 9 nM | 0.94 nM | 1.3 nM
Cc1sc2cnc(Nc3cnn(C)c3)nc2c1-c1cccc2c1OCC2 [Compound 2, N-[7-(2,3-dihydro-1-benzofuran-7-yl)-6-methylthieno[3,2-d]pyrimidinyl-2-yl]-1-methyl-1H-pyrazol-4-amine] | 14 nM | 1.8 nM | 0.99 nM
COc1cc(OCCCS(C)(=O)=O)ccc1-c1c(C)sc2cnc(Nc3cnn(C)c3)nc12 [Compound 11, N-{7-[4-(3-methylsulfonylpropoxy)-2-methoxyphenyl]-6-methylthieno[3,2-d]pyrimidinyl-2-yl]-1-methyl-1H-pyrazol-4-amine] | 5.1 nM | 0.94 nM | 0.73 nM

Further lines, results first:

IC50 (JAK1 kinase) | IC50 (JAK2 kinase) | IC50 (JAK3 kinase) | Structure (SMILES)
13 nM | 0.82 nM | 0.41 nM | Cc1sc2cnc(Nc3cnn(C4CCN(C(=O)CO)CC4)c3)nc2c1-c1cccc2c1OCC2 [Compound 36, 1-[4-(4-{[7-(2,3-dihydro-1-benzofuran-7-yl)-6-methylthieno[3,2-d]pyrimidinyl-2-yl]amino}-1H-pyrazol-1-yl)piperidinyl-1-yl]-2-hydroxyacetamide]
3.6 nM | 0.6 nM | 1.3 nM | COc1ccccc1-c1c(C)sc2cnc(Nc3cnn(C4CCN(C)CC4)c3)nc12 [Compound 25, N-[7-(2-methoxyphenyl)-6-methylthieno[3,2-d]pyrimidinyl-2-yl]-1-(1-methylpiperidin-4-yl)-1H-pyrazol-4-amine]
4.2 nM | 0.51 nM | 1.3 nM | COc1cc(S(C)(=O)=O)ccc1-c1c(C)sc2cnc(Nc3cnn(C4CCNCC4)c3)nc12 [Compound 48, N-[7-(4-methylsulfonyl-2-methoxyphenyl)-6-methylthieno[3,2-d]pyrimidin-2-yl]-1-(4-piperidin)-1H-pyrazol-4-amine]
18 nM | 1.6 nM | 0.71 nM | Cc1sc2cnc(Nc3cnn(C4CCOCC4)c3)nc2c1-c1cccc2c1OCC2 [Compound 39, N-[7-(2,3-dihydro-1-benzofuran-7-yl)-6-methylthieno[3,2-d]pyrimidin-2-yl]-1-(tetrahydropyran-4-yl)-1H-pyrazol-4-amine]
58 nM | 9.6 nM | 3 nM | COc1ccccc1-c1cncc2cnc(Nc3cnn(C4CCNCC4)c3)nc12 [Compound 47, N-[8-(2-methoxyphenyl)pyridino[4,3-d]pyrimidin-2-yl]-1-(4-piperidin)-1H-pyrazol-4-amine]
54 nM | 7.7 nM | 16 nM | c1cc2c(c(-c3cccc4cnc(Nc5cnn(C6CCNCC6)c5)nc34)c1)OCC2 [Compound 44, 8-(2,3-Dihydro-1-benzofuran-7-yl)-N-[1-(4-piperidin)-1H-pyrazol-4-yl]quinazolin-2-amine]
